Measurements from patent publication US9919034B2, “Methods of treating and prophylactically protecting mammalian patients infected by viruses classified in Baltimore group V” (priority 2014, dated 2018).

Test system: Rabies virus
Format: cell-based

## ranpirnase
  activity against rabies (SI, FIG. 1): extraordinarily active
